Assays:
human GLP-1R [1] = target: T1, human GLP-1R (Homo sapiens, UniProt P43220); assay: GLP-1R cAMP assay (Example B1b, HTRF, 30 min at 37°); assay type: cell-based; settings: cAMP accumulation in HEK293 expressing human GLP-1R, no BETP, 30 min at 37° (Method B1b), Table 1
T1 construct: host or cells: HEK293
Description: Assay was carried out with HEK293 expressing human GLP-1R using HTRF assay, developed by Wuxi Apptec. The method is a competitive assay between native cAMP produced by the cells and exogenous cAMP labeled with a proprietary dye d2. The tracer binding is visualized by a mAb anti-cAMP labeled with Cryptate. The signal (i.e. energy transfer) is inversely proportional to the concentration of CAMP in either standard or experimental sample. Compounds were tested in the absence of BETP. Ten microliter of cell suspension in assay buffer (5 mM HEPES, 500 μM IBMX, 0.1% BSA) were added to each well (1,000 cells per well) in a low volume 384-well plate for the assay. Serially diluted compounds were added in 100 nL volume to duplicate wells, by Labcyte Echo. GLP-1 (7-37) was used as positive control. Assay plate was incubated for 30 minutes at 37°. Stock of cAMP Detection Solution was prepared by mixing 38 parts of cAMP lysis buffer, 1 part of cAMP-D2, 1 part of anti-cAMP cryptate reagent (Cisbio #62AM4PEJ). Ten microliter of the cAMP Detection Solution was added to each well, and the assay plate was incubated for 1 hour at room temperature in the dark. Plates were read on Envision plate reader. The data were analyzed by ScreenUltra in Dotmatics, with % activation expressed using following formula: (Signal ratio […]*10000−negative control)/(postive control−negative control)*100. Dose response curves were plotted and EC50 values calculated by non-linear regression using 4-parameter fit. The potency (EC50) values for cAMP accumulation in HEK293 cells are reported in the Table 1 below (for compounds ID 610-708).

human GLP-1R [2] = target: T1, human GLP-1R; assay: GLP-1R cAMP assay (Example B1a, HTRF, 30 min at room temperature); assay type: cell-based
How it was run: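 Competitive HTRF read-out of cAMP after 30 min room-temperature stimulation, BETP absent, of human GLP-1R-HEK293 cells (1,000/well) in HEPES buffer with 500 μM IBMX and 0.1% BSA. Activation normalised to GLP-1(7-37) positive control. EC50 from 4-parameter non-linear regression.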

[3] = cAMP accumulation in HEK293 expressing human GLP-1R, no BETP, 30 min room temperature (Method B1a, compounds ID 1-609), Table 1, read-out: EC50

T1 sequence (P43220 24-463): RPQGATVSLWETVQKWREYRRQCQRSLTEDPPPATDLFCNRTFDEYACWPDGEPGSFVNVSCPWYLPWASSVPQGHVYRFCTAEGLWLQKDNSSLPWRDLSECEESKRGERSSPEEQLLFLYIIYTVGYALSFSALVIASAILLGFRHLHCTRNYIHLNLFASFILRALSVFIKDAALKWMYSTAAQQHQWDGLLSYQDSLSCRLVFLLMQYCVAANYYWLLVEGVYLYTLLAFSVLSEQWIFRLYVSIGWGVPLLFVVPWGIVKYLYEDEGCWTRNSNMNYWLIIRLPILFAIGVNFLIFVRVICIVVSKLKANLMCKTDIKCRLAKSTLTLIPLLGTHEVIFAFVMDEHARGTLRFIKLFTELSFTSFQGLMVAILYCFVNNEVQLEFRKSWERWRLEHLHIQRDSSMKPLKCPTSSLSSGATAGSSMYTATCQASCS

| Structure (SMILES) | EC50 (human GLP-1R [2]; [3]) [µM] | other results |
| --- | --- | --- |
| Cc1cc(-n2nc3c(c2-n2ccn(-c4ccc5c(cnn5C)c4F)c2=O)[C@@H]2CC[C@H](C3)N2C(=O)c2c(F)c3cc(C4CCOC(C)(C)C4)ccc3n2[C@@]2(c3noc(=O)[nH]3)C[C@@H]2C)cc(C)c1F (stereo in doubt) [Compound 712, 3-[(1S,2S)-1-[5-[(4S)-2,2-dimethyltetrahydropyran-4-yl]-3-fluoro-2-[(1S,8R)-4-(4-fluoro-3,5-dimethyl-phenyl)-3-[3-(4-fluoro-1-methyl-indazol-5-yl)-2-oxo-imidazol-1-yl]-4,5,11-triazatricyclo[6.2.1.02,6]undeca-2,5-diene-11-carbonyl]indol-1-yl]-2-methyl-cyclopropyl]-4H-1,2,4-oxadiazol-5-one] |  | EC50 (human GLP-1R [1]): 0.112 µM |
| Cc1cc(-n2nc3c(c2N2C(=O)CN(c4ccc5c(cnn5C)c4F)C2=O)[C@H]2CC[C@@H](C3)N2C(=O)c2cc3cc([C@H]4CCOC(C)(C)C4)ccc3n2[C@@]2(c3noc(=O)[nH]3)C[C@@H]2C)cc(C)c1F [Compound 234, 3-[(1R,8S)-11-[5-[(4S)-2,2-dimethyltetrahydropyran-4-yl]-1-[(1S,2S)-2-methyl-1-(5-oxo-4H-1,2,4-oxadiazol-3-yl)cyclopropyl]indole-2-carbonyl]-4-(4-fluoro-3,5-dimethyl-phenyl)-4,5,11-triazatricyclo[6.2.1.02,6]undeca-2,5-dien-3-yl]-1-(4-fluoro-1-methyl-indazol-5-yl)imidazolidine-2,4-dione] | > 10 |  |
| Cc1cc(-n2nc3c(c2-n2ccn(-c4ccc5c(cnn5C)c4F)c2=O)[C@@H]2CC[C@H](C3)N2C(=O)c2cc3cc([C@H]4CCOC(C)(C)C4)ccc3n2[C@@]2(C(N)=O)C[C@@H]2C)cc(C)c1F [Compound 138, cis-(1S,2S)-1-[5-[(4S)-2,2-dimethyltetrahydropyran-4-yl]-2-[(1S,8R)-4-(4-fluoro-3,5-dimethyl-phenyl)-3-[3-(4-fluoro-1-methyl-indazol-5-yl)-2-oxo-imidazol-1-yl]-4,5,11-triazatricyclo[6.2.1.02,6]undeca-2,5-diene-11-carbonyl]indol-1-yl]-2-methyl-cyclopropanecarboxamide] | 1.05 |  |
| Cc1cc(-n2nc3c(c2-n2ccn(-c4ccc5c(cnn5C)c4F)c2=O)[C@H](C)N(C(=O)c2cc4cc(C5CCOCC5)ccc4n2[C@@]2(c4noc(=O)[nH]4)C[C@@H]2C)CCC3)cc(C)c1F [Compound 607, 3-((1S,2S)-1-(2-((S)-3-(3-(4-fluoro-1-methyl-1H-indazol-5-yl)-2-oxo-2,3-dihydro-1H-imidazol-1-yl)-2-(4-fluoro-3,5-dimethylphenyl)-4-methyl-2,4,5,6,7,8-hexahydropyrazolo[4,3-c]azepine-5-carbonyl)-5-(tetrahydro-2H-pyran-4-yl)-1H-indol-1-yl)-2-methylcyclopropyl)-1,2,4-oxadiazol-5 (4H)-one] | 0.0537 |  |
| Cc1cc(-n2nc3c(c2-n2ccn(-c4ccc5c(cnn5C)c4F)c2=O)[C@@H]2CC[C@H](C3)N2C(=O)c2cc3cc([C@H]4CCOC(C)(C)C4)ccc3n2C(C)(C)c2noc(=O)[nH]2)cc(C)c1F [Compound 140, 3-[1-[5-[(4S)-2,2-dimethyltetrahydropyran-4-yl]-2-[(1S,8R)-4-(4-fluoro-3,5-dimethyl-phenyl)-3-[3-(4-fluoro-1-methyl-indazol-5-yl)-2-oxo-imidazol-1-yl]-4,5,11-triazatricyclo[6.2.1.02,6]undeca-2,5-diene-11-carbonyl]indol-1-yl]-1-methyl-ethyl]-4H-1,2,4-oxadiazol-5-one] | > 10 |  |
| Cc1cc(-n2nc3c(c2-n2ccn(-c4ccc(C(=O)N(C)C5CC5)c(F)c4F)c2=O)[C@@H]2CCC[C@H](C3)N2C(=O)c2cc3cc([C@H]4CCOC(C)(C)C4)ccc3n2[C@@]2(c3noc(=O)[nH]3)C[C@@H]2C)cc(C)c1F [Compound 547, N-cyclopropyl-4-[3-[(1S,8R)-12-[5-[(4S)-2,2-dimethyltetrahydropyran-4-yl]-1-[(1S,2S)-2-methyl-1-(5-oxo-4H-1,2,4-oxadiazol-3-yl)cyclopropyl]indole-2-carbonyl]-4-(4-fluoro-3,5-dimethyl-phenyl)-4,5,12-triazatricyclo[6.3.1.02,6]dodeca-2,5-dien-3-yl]-2-oxo-imidazol-1-yl]-2,3-difluoro-N-methyl-benzamide] | ≥ 10 |  |
| Cc1cc(-n2nc3c(c2-n2ccn(-c4ccc5c(cnn5C)c4F)c2=O)C2CCC([C@H]3F)N2C(=O)c2cc3cc([C@H]4CCOC(C)(C)C4)ccc3n2[C@@]2(c3noc(=O)[nH]3)C[C@@H]2C)cc(C)c1F (stereo partly drawn) [Compound 511, 3-[(1S,2S)-1-[5-[(4S)-2,2-dimethyltetrahydropyran-4-yl]-2-[(7R)-7-fluoro-4-(4-fluoro-3,5-dimethyl-phenyl)-3-[3-(4-fluoro-1-methyl-indazol-5-yl)-2-oxo-imidazol-1-yl]-4,5,11-triazatricyclo[6.2.1.02,6]undeca-2,5-diene-11-carbonyl]indol-1-yl]-2-methyl-cyclopropyl]-4H-1,2,4-oxadiazol-5-one] | 0.588 |  |
| Cc1cc(-n2nc3c(c2-n2ccn(-c4ccc5c(cnn5C)c4F)c2=O)[C@H]2CC[C@@H](CC3)N2C(=O)c2cc3cc([C@H]4CCOC(C)(C)C4)ccc3n2[C@@]2(c3noc(=O)[nH]3)C[C@@H]2C)cc(C)c1F [Compound 524, 3-[(1S,2S)-1-[5-[(4S)-2,2-dimethyltetrahydropyran-4-yl]-2-[(1R,9S)-4-(4-fluoro-3,5-dimethyl-phenyl)-3-[3-(4-fluoro-1-methyl-indazol-5-yl)-2-oxo-imidazol-1-yl]-4,5,12-triazatricyclo[7.2.1.02,6]dodeca-2,5-diene-12-carbonyl]indol-1-yl]-2-methyl-cyclopropyl]-4H-1,2,4-oxadiazol-5-one] | ≥ 10 |  |
| Cc1cc(-n2nc3c(c2-n2ccn(-c4ccc5c(cnn5C)c4F)c2=O)[C@@H]2COC[C@H](C3)N2S(=O)(=O)c2cc3cc(C4CCOCC4)ccc3n2[C@@]2(c3noc(=O)[nH]3)C[C@@H]2C)cc(C)c1F [Compound 526, 3-[(1S,2S)-1-[2-[[(1R,8S)-4-(4-fluoro-3,5-dimethyl-phenyl)-3-[3-(4-fluoro-1-methyl-indazol-5-yl)-2-oxo-imidazol-1-yl]-10-oxa-4,5,12-triazatricyclo[6.3.1.02,6]dodeca-2,5-dien-12-yl]sulfonyl]-5-tetrahydropyran-4-yl-indol-1-yl]-2-methyl-cyclopropyl]-4H-1,2,4-oxadiazol-5-one] | 1.13 |  |
| Cc1cc(-n2nc3c(c2-n2ccn(-c4ccc5c(cnn5C)c4F)c2=O)[C@@H]2CC[C@H](C3)N2C(=O)c2cc3cc(C4CCOC(C)(C)C4)ncc3n2[C@@]2(c3noc(=O)[nH]3)C[C@@H]2C)cc(C)c1F (stereo partly drawn) [Compound 209, 3-((1S,2S)-1-(5-(2,2-dimethyltetrahydro-2H-pyran-4-yl)-2-((4S,7R)-3-(3-(4-fluoro-1-methyl-1H-indazol-5-yl)-2-oxo-2,3-dihydro-1H-imidazol-1-yl)-2-(4-fluoro-3,5-dimethylphenyl)-2,4,5,6,7,8-hexahydro-4,7-epiminocyclohepta [c]pyrazole-9-carbonyl)-1H-pyrrolo[2,3-c]pyridin-1-yl)-2-methylcyclopropyl)-1,2,4-oxadiazol-5 (4H)-one] | 0.117 |  |
| Cc1cc(-n2nc3c(c2-n2ccn(-c4ccc5c(cnn5C)c4F)c2=O)[C@@H]2CC[C@H](C3)N2C(=O)c2cc3cc(C4COC(C)(C)C4)ccc3n2[C@@]2(c3noc(=O)[nH]3)C[C@@H]2C)cc(C)c1F (stereo partly drawn) [Compound 418, 3-[(1S,2S)-1-[5-(5,5-dimethyltetrahydrofuran-3-yl)-2-[(1S,8R)-4-(4-fluoro-3,5-dimethyl-phenyl)-3-[3-(4-fluoro-1-methyl-indazol-5-yl)-2-oxo-imidazol-1-yl]-4,5,11-triazatricyclo[6.2.1.02,6]undeca-2,5-diene-11-carbonyl]indol-1-yl]-2-methyl-cyclopropyl]-4H-1,2,4-oxadiazol-5-one] | 0.836 |  |
| Cc1cc(-n2nc3c(c2-n2ccn(-c4ccc5c(cnn5C)c4F)c2=O)[C@@H]2CC[C@H]([C@H]3F)N2C(=O)c2cc3cc([C@H]4CCOC(C)(C)C4)ccc3n2[C@@]2(c3noc(=O)[nH]3)C[C@@H]2C)cc(C)c1F [Compound 512, 3-[(1S,2S)-1-[5-[(4S)-2,2-dimethyltetrahydropyran-4-yl]-2-[(1S,7R,8R)-7-fluoro-4-(4-fluoro-3,5-dimethyl-phenyl)-3-[3-(4-fluoro-1-methyl-indazol-5-yl)-2-oxo-imidazol-1-yl]-4,5,11-triazatricyclo[6.2.1.02,6]undeca-2,5-diene-11-carbonyl]indol-1-yl]-2-methyl-cyclopropyl]-4H-1,2,4-oxadiazol-5-one] | 0.226 | EC50 Ratio (human GLP-1R [2]; Table 1d, potency ratio of stereoisomer pair (less potent / more potent isomer)): >83; EC50 (human GLP-1R [2]; Table 1d, stereoisomer pairs, read-out: EC50): 0.226 µM; EC50 (human GLP-1R [2]; text to Table 1d, bridge atoms configured into the plane or away from the reader, read-out: potency (EC50)): < 1 µM |

— US12617783B2, “Heterocyclic GLP-1R agonists” (BIOMEA FUSION, INC., priority 2024, dated 2026)
